Data: patent US12227495B2, “Herbicidal compounds” (SYNGENTA CROP PROTECTION AG, priority 2018, dated 2025)

Tests used:
Assay type in all cases: in vivo
Details in all cases: evaluated after 13 days
Solanum nigrum (SOLNI) [1] = experiment: Pre-emergence herbicide test, glasshouse, percentage damage
Description: (§1) Seeds of a variety of test species are sown in standard soil in pots (Lolium perenne (LOLPE), Solanum nigrum (SOLNI), Amaranthus retoflexus (AMARE), Setaria faberi (SETFA), Echinochloa crus-galli (ECHCG), Ipomoea hederacea (IPOHE)). After cultivation for one day (pre-emergence) or after 8 days cultivation (post-emergence) under controlled conditions in a glasshouse (at 24/16° C., day/night; 14 hours light; 65% humidity), the plants are sprayed with an aqueous spray solution derived from the formulation of the technical active ingredient in acetone/water (50:50) solution containing 0.5% Tween 20 (polyoxyethelyene sorbitan monolaurate, CAS RN 9005-64-5). Compounds are applied at 500 g/ha unless otherwise stated. The test plants are then grown in a glasshouse under controlled conditions in a glasshouse (at 24/16° C., day/night; 14 hours light; 65% humidity) and watered twice daily. After 13 days for pre and post-emergence, the test is evaluated for the percentage damage caused to the plant. The biological activities are shown in the following table on a five point scale (5=81-100%; 4=61-80%; 3=41-60%; 2=21-40%; 1=0-20%).

Setaria faberi (SETFA) [2] = experiment: as above
Description: as §1

[3] = system: Amaranthus retoflexus (AMARE); experiment: as above
Description: as §1

Lolium perenne (LOLPE) [4] = experiment: as above
Description: as §1

[5] = system: Echinochloa crus-galli (ECHCG); experiment: as above
Description: as §1

[6] = system: Ipomoea hederacea (IPOHE); experiment: as above
Description: as §1

Solanum nigrum (SOLNI) [7] = experiment: Post-emergence herbicide test, glasshouse, percentage damage
Description: as §1

Setaria faberi (SETFA) [8] = experiment: as above
Description: as §1

[9] = system: Amaranthus retoflexus (AMARE); experiment: as above
Description: as §1

Lolium perenne (LOLPE) [10] = experiment: as above
Description: as §1

[11] = system: Echinochloa crus-galli (ECHCG); experiment: as above
Description: as §1

[12] = system: Ipomoea hederacea (IPOHE); experiment: as above
Description: as §1

SMILES | Pre-emergence Test SOLNI percentage damage (five point scale) (Solanum nigrum (SOLNI) [1]; rate 500 g/ha) | Pre-emergence Test SETFA percentage damage (five point scale) (Setaria faberi (SETFA) [2]; rate 500 g/ha) | Pre-emergence Test AMARE percentage damage (five point scale) ([3]; rate 500 g/ha) | Pre-emergence Test LOLPE percentage damage (five point scale) (Lolium perenne (LOLPE) [4]; rate 500 g/ha) | Pre-emergence Test ECHCG percentage damage (five point scale) ([5]; rate 500 g/ha) | Pre-emergence Test IPOHE percentage damage (five point scale) ([6]; rate 500 g/ha) | percentage damage caused to the plant, SOLNI (Solanum nigrum (SOLNI) [7]; 500 g/ha) | percentage damage caused to the plant, SETFA (Setaria faberi (SETFA) [8]; 500 g/ha) | percentage damage caused to the plant, AMARE ([9]; 500 g/ha) | percentage damage caused to the plant, LOLPE (Lolium perenne (LOLPE) [10]; 500 g/ha) | percentage damage caused to the plant, ECHCG ([11]; 500 g/ha) | percentage damage caused to the plant, IPOHE ([12]; 500 g/ha) | Pre-emergence Test SOLNI percentage damage (five point scale) (Solanum nigrum (SOLNI) [1]; rate 1000 g/ha) | Pre-emergence Test SETFA percentage damage (five point scale) (Setaria faberi (SETFA) [2]; rate 1000 g/ha) | Pre-emergence Test AMARE percentage damage (five point scale) ([3]; rate 1000 g/ha) | Pre-emergence Test LOLPE percentage damage (five point scale) (Lolium perenne (LOLPE) [4]; rate 1000 g/ha) | Pre-emergence Test ECHCG percentage damage (five point scale) ([5]; rate 1000 g/ha) | Pre-emergence Test IPOHE percentage damage (five point scale) ([6]; rate 1000 g/ha) | percentage damage caused to the plant, SOLNI (Solanum nigrum (SOLNI) [7]; 1000 g/ha) | percentage damage caused to the plant, SETFA (Setaria faberi (SETFA) [8]; 1000 g/ha) | other results
Fc1cccc(Oc2ccc(C(F)(F)F)cn2)c1-c1cc(C(F)F)no1 [Compound A6] | 5 (5=81-100%) | 5 (5=81-100%) | 5 (5=81-100%) | 4 (4=61-80%) | 4 (4=61-80%) | 2 (2=21-40%) | 5 (5=81-100%) | 5 (5=81-100%) | 4 (4=61-80%) | 4 (4=61-80%) | 5 (5=81-100%) | 3 (3=41-60%) |  |  |  |  |  |  |  |  | 
Fc1cccc(Oc2cccc(F)c2-c2cc(C(F)F)no2)n1 [Compound A7] | 5 (5=81-100%) | 4 (4=61-80%) | 5 (5=81-100%) | 1 (1=0-20%) | 4 (4=61-80%) | 1 (1=0-20%) | 5 (5=81-100%) | 5 (5=81-100%) | 2 (2=21-40%) | 2 (2=21-40%) | 4 (4=61-80%) | 2 (2=21-40%) |  |  |  |  |  |  |  |  | 
Fc1cccc(Oc2cc(C(F)(F)F)ccn2)c1-c1cc(C(F)F)no1 [Compound A8] | 4 (4=61-80%) | 3 (3=41-60%) | 5 (5=81-100%) | 1 (1=0-20%) | 2 (2=21-40%) | 1 (1=0-20%) | 5 (5=81-100%) | 4 (4=61-80%) | 2 (2=21-40%) | 1 (1=0-20%) | 2 (2=21-40%) | 1 (1=0-20%) |  |  |  |  |  |  |  |  | 
Fc1cccc(Oc2ccc(Cl)cn2)c1-c1cc(C(F)F)no1 [Compound A9] | 5 (5=81-100%) | 5 (5=81-100%) | 5 (5=81-100%) | 4 (4=61-80%) | 5 (5=81-100%) | 3 (3=41-60%) | 5 (5=81-100%) | 5 (5=81-100%) | 5 (5=81-100%) | 5 (5=81-100%) | 5 (5=81-100%) | 4 (4=61-80%) |  |  |  |  |  |  |  |  | 
Fc1cnc(Oc2cccc(F)c2-c2cc(C(F)F)no2)c(F)c1 [Compound A10] | 5 (5=81-100%) | 5 (5=81-100%) | 5 (5=81-100%) | 5 (5=81-100%) | 5 (5=81-100%) | 5 (5=81-100%) | 5 (5=81-100%) | 5 (5=81-100%) | 5 (5=81-100%) | 5 (5=81-100%) | 5 (5=81-100%) | 5 (5=81-100%) |  |  |  |  |  |  |  |  | 
N#Cc1ccc(Oc2cccc(F)c2-c2cc(C(F)F)no2)nc1 [Compound A12] | 5 (5=81-100%) | 5 (5=81-100%) | 5 (5=81-100%) | 5 (5=81-100%) | 5 (5=81-100%) | 5 (5=81-100%) | 5 (5=81-100%) | 5 (5=81-100%) | 5 (5=81-100%) | 5 (5=81-100%) | 5 (5=81-100%) | 5 (5=81-100%) |  |  |  |  |  |  |  |  | 
O=[N+]([O-])c1ccc(Oc2ccccc2-n2cc(C(F)(F)F)cn2)nc1 [Compound A14, 5-nitro-2-[2-[4-(trifluoromethyl)pyrazol-1-yl]phenoxy]pyridine] |  |  |  |  |  |  |  |  |  |  |  |  | 5 (5=81-100%) | 5 (5=81-100%) | 5 (5=81-100%) | 5 (5=81-100%) | 5 (5=81-100%) | 3 (3=41-60%) | 5 (5=81-100%) | 5 (5=81-100%) | percentage damage caused to the plant, AMARE ([9]; 1000 g/ha): 5 (5=81-100%); percentage damage caused to the plant, LOLPE (Lolium perenne (LOLPE) [10]; 1000 g/ha): 5 (5=81-100%); percentage damage caused to the plant, ECHCG ([11]; 1000 g/ha): 5 (5=81-100%); percentage damage caused to the plant, IPOHE ([12]; 1000 g/ha): 4 (4=61-80%)
FC(F)(F)c1ccc(Oc2ccccc2-n2cc(C(F)(F)F)cn2)nc1 [Compound A15] |  |  |  |  |  |  |  |  |  |  |  |  | 4 (4=61-80%) | 5 (5=81-100%) | 5 (5=81-100%) | 3 (3=41-60%) | 5 (5=81-100%) | 1 (1=0-20%) | 4 (4=61-80%) | 3 (3=41-60%) | percentage damage caused to the plant, AMARE ([9]; 1000 g/ha): 1 (1=0-20%); percentage damage caused to the plant, LOLPE (Lolium perenne (LOLPE) [10]; 1000 g/ha): 1 (1=0-20%); percentage damage caused to the plant, ECHCG ([11]; 1000 g/ha): 2 (2=21-40%); percentage damage caused to the plant, IPOHE ([12]; 1000 g/ha): 2 (2=21-40%)
Fc1cc(Cl)cnc1Oc1ccccc1-n1cc(C(F)(F)F)cn1 [Compound A16] |  |  |  |  |  |  |  |  |  |  |  |  | 5 (5=81-100%) | 5 (5=81-100%) | 5 (5=81-100%) | 5 (5=81-100%) | 5 (5=81-100%) | 5 (5=81-100%) | 5 (5=81-100%) | 5 (5=81-100%) | percentage damage caused to the plant, AMARE ([9]; 1000 g/ha): 4 (4=61-80%); percentage damage caused to the plant, LOLPE (Lolium perenne (LOLPE) [10]; 1000 g/ha): 5 (5=81-100%); percentage damage caused to the plant, ECHCG ([11]; 1000 g/ha): 5 (5=81-100%); percentage damage caused to the plant, IPOHE ([12]; 1000 g/ha): 5 (5=81-100%)
FC(F)(F)c1cnn(-c2ccccc2Oc2ccc(Cl)cn2)c1 [Compound A17] |  |  |  |  |  |  |  |  |  |  |  |  | 5 (5=81-100%) | 5 (5=81-100%) | 5 (5=81-100%) | 5 (5=81-100%) | 5 (5=81-100%) | 5 (5=81-100%) | 5 (5=81-100%) | 5 (5=81-100%) | percentage damage caused to the plant, AMARE ([9]; 1000 g/ha): 5 (5=81-100%); percentage damage caused to the plant, LOLPE (Lolium perenne (LOLPE) [10]; 1000 g/ha): 5 (5=81-100%); percentage damage caused to the plant, ECHCG ([11]; 1000 g/ha): 5 (5=81-100%); percentage damage caused to the plant, IPOHE ([12]; 1000 g/ha): 5 (5=81-100%)
Fc1cnc(Oc2ccccc2-n2cc(C(F)(F)F)cn2)c(F)c1 [Compound A18] |  |  |  |  |  |  |  |  |  |  |  |  |  |  |  |  |  |  |  |  | Pre-emergence Test SOLNI percentage damage (five point scale) (Solanum nigrum (SOLNI) [1]; rate 250 g/ha): 5 (5=81-100%); Pre-emergence Test SETFA percentage damage (five point scale) (Setaria faberi (SETFA) [2]; rate 250 g/ha): 5 (5=81-100%); Pre-emergence Test AMARE percentage damage (five point scale) ([3]; rate 250 g/ha): 5 (5=81-100%); Pre-emergence Test LOLPE percentage damage (five point scale) (Lolium perenne (LOLPE) [4]; rate 250 g/ha): 1 (1=0-20%); Pre-emergence Test ECHCG percentage damage (five point scale) ([5]; rate 250 g/ha): 5 (5=81-100%); Pre-emergence Test IPOHE percentage damage (five point scale) ([6]; rate 250 g/ha): 1 (1=0-20%); percentage damage caused to the plant, SOLNI (Solanum nigrum (SOLNI) [7]; 250 g/ha): 3 (3=41-60%); percentage damage caused to the plant, SETFA (Setaria faberi (SETFA) [8]; 250 g/ha): 3 (3=41-60%); percentage damage caused to the plant, AMARE ([9]; 250 g/ha): 3 (3=41-60%); percentage damage caused to the plant, LOLPE (Lolium perenne (LOLPE) [10]; 250 g/ha): 2 (2=21-40%); percentage damage caused to the plant, ECHCG ([11]; 250 g/ha): 4 (4=61-80%); percentage damage caused to the plant, IPOHE ([12]; 250 g/ha): 2 (2=21-40%)
